This passage reports IC50 results from BindingDB's records for doi:10.1016/j.bmcl.2009.07.031 (Merck Research Laboratory, 2009).

Test [1] is described as follows: Inhibition of HIV1 reverse transcriptase Y181C mutant by SPA assay.
A short description of test [2]: Inhibition of HIV1 reverse transcriptase by SPA assay.

As for `Cc1ccc2c(c1)CCCN2C(=O)SCC(=O)Nc1ccc(S(N)(=O)=O)cc1Cl`, in test [1], half-maximal inhibition (IC50) required 1300 nM.

Compound `NS(=O)(=O)c1ccc(NC(=O)CCC(=O)N2CCCc3cc(Cl)cc(Cl)c32)c(Cl)c1` had an IC50 in test [2] of 194 nM. This counts as sub-micromolar.

For the compound `N#Cc1ccc(NC(=O)CSC(=O)N2CCCc3cc(Cl)cc(Cl)c32)c(Cl)c1`, the IC50 came out at 7 nM in test [2] and 95 nM in test [1].

Consider `NS(=O)(=O)c1ccc(NC(=O)CSC(=O)N2CCCc3cccc(Cl)c32)c(Cl)c1`, for which the IC50 was found to be 2 nM in test [2] and 31 nM in test [1].

In the case of `NS(=O)(=O)c1ccc(NC(=O)COC(=O)N2CCCc3cc(Cl)cc(Cl)c32)c(Cl)c1`, the concentration for half-maximal inhibition (IC50) worked out at 19 nM in test [2] and 116 nM in test [1].

For the compound `Cc1cc(C)c(N(C)C(=O)SCC(=O)Nc2ccc(S(N)(=O)=O)cc2Cl)c(C)c1`, the half-inhibitory concentration (IC50) was 8 nM in test [2] and 80 nM in test [1].

As for `NCCCNC(=O)c1ccc(NC(=O)CSC(=O)N2CCCc3cc(Cl)cc(Cl)c32)c(Cl)c1`, the figures for the IC50 in test [2] and in test [1] were 2 nM and 7 nM, respectively.

With `Cc1cccc2c1N(C(=O)SCC(=O)Nc1ccc(S(N)(=O)=O)cc1Cl)CCC2`, the IC50 in test [2] was determined as 6 nM; in test [1], 61 nM.

With `O=C(CSC(=O)N1CCCc2cc(Cl)cc(Cl)c21)Nc1ccc(C(=O)NCc2ccccc2)cc1Cl`, the IC50 in test [2] is 2 nM; in test [1], 4 nM.

Consider `CS(=O)(=O)c1ccc(NC(=O)CSC(=O)N2CCCc3cc(Cl)cc(Cl)c32)c(Cl)c1`, for which the IC50 in test [2] turned out to be 4 nM; in test [1], 11 nM.

For the compound `NS(=O)(=O)c1ccc(NC(=O)CNC(=O)N2CCCc3cc(Cl)cc(Cl)c32)c(Cl)c1`, 336 nM corresponded to half-maximal inhibition in test [2] (IC50).

Consider `O=C(CSC(=O)N1CCCc2cc(Cl)cc(Cl)c21)Nc1ccccc1Cl`, for which the IC50 in test [2] was determined as 4 nM; in test [1], 175 nM.

`NS(=O)(=O)c1ccc(NC(=O)CSC(=O)N2CCCc3cc(Cl)ccc32)c(Cl)c1` came in with an IC50 in test [2] of 8 nM.

In test [1], `NS(=O)(=O)c1ccc(NC(=O)CSC(=O)N2CCCc3cc(Cl)cc(Cl)c32)c(Cl)c1` gave an IC50 of 4 nM.
